# Reference: patent publication US4677100A, “Cephalosporin derivatives” (Banyu Pharmaceutical Co., Ltd., priority 1984, dated 1987)
# Read-outs that look alike come from different tables or passages of the source.
# Assays:
# [1] = tested on: Gram-positive bacteria and Gram-negative bacteria; conditions: background of the art; cited from earlier work
# S. aureus JS-1 = test: MIC, agar plate dilution method; type: cell-based; conditions: Staphylococcus aureus
# Method: (§1) The minimum inhibitory concentrations (MIC: μg/ml) of the compounds of the present invention against various microorganisms were measured by an agar plate dilution method (inoculum size: 10^6 CFU/ml) by using Sensitivity Disk Agar (Nissui) in comparison with Cefotaxime and Ceftazidime as comparative compounds.
# E. coli ML1410/Rte16 = test: MIC, agar plate dilution method; type: cell-based; conditions: for MIC: Escherichia coli, ML1410/RTE16, read-out: Minimum Inhibitory Concentration
# Method: as §1
# E. coli CSH2 = test: MIC, agar plate dilution method; type: cell-based; conditions: 10^6 CFU/ml, Sensitivity Disk Agar; for MIC: Escherichia coli, read-out: Minimum Inhibitory Concentration
# Method: as §1
# S. aureus NIHJJC-1 = test: MIC, agar plate dilution method; type: cell-based; conditions: Staphylococcus aureus
# Method: as §1
# E. coli NIHJJC-2 = test: MIC, agar plate dilution method; type: cell-based; conditions: for MIC: Escherichia coli
# Method: as §1
# K. pneumoniae No. 42 = test: MIC, agar plate dilution method; type: cell-based; conditions: Klebsiella pneumoniae
# Method: as §1
# A. calcoaceticus No. 14 = test: MIC, agar plate dilution method; type: cell-based; conditions: Acinetobacter calcoaceticus
# Method: as §1
# E. cloaceae Nek 39 = test: MIC, agar plate dilution method; type: cell-based; conditions: read-out: Minimum Inhibitory Concentration
# Method: as §1
# P. vulgaris OB1043 = test: MIC, agar plate dilution method; type: cell-based; conditions: Proteus vulgaris
# Method: as §1
# E. coli C/Rms149 = test: MIC, agar plate dilution method; type: cell-based; conditions: for MIC: Escherichia coli, read-out: Minimum Inhibitory Concentration
# Method: as §1
# C. freundii No. 7 = test: MIC, agar plate dilution method; type: cell-based; conditions: Citrobacter freundii
# Method: as §1
# P. mirabilis JY10 = test: MIC, agar plate dilution method; type: cell-based; conditions: Proteus mirabilis
# Method: as §1
# E. coli W3630/Rms213 = test: MIC, agar plate dilution method; type: cell-based; conditions: for Minimum Inhibitory Concentration: E. coli W3630/Rms213, 10^6 CFU/ml, Sensitivity Disk Agar; for MIC: Escherichia coli, W3630/RMS213, read-out: Minimum Inhibitory Concentration
# Method: as §1
# E. coli CSH = test: MIC, agar plate dilution method; type: cell-based; conditions: for Minimum Inhibitory Concentration: E. coli CSH, 10^6 CFU/ml, Sensitivity Disk Agar; for MIC: Escherichia coli, read-out: Minimum Inhibitory Concentration
# Method: as §1
# S. marcescens No. 16-2 = test: MIC, agar plate dilution method; type: cell-based; conditions: Serratia marcescens
# Method: as §1
# E. coli W3630/Rms212 = test: MIC, agar plate dilution method; type: cell-based; conditions: for Minimum Inhibitory Concentration: E. coli W3630/Rms212, 10^6 CFU/ml, Sensitivity Disk Agar; for MIC: Escherichia coli, W3630/RMS212, read-out: Minimum Inhibitory Concentration
# Method: as §1
# P. vulgaris No. 33 = test: MIC, agar plate dilution method; type: cell-based; conditions: Proteus vulgaris
# Method: as §1
# P. maltophilia IID 1275 = test: MIC, agar plate dilution method; type: cell-based, Pseudomonas maltophilia; conditions: Stenotrophomonas maltophilia
# Method: as §1
# Gram-positive bacteria = conditions: background of the art; cited from earlier work
# P. cepacia 23 = test: MIC, agar plate dilution method; type: cell-based, Pseudomonas cepacia
# Method: as §1
# Gram-negative bacteria = conditions: background of the art; cited from earlier work
# P. aeruginosa AK109 = test: MIC, agar plate dilution method; type: cell-based, Pseudomonas aeruginosa; conditions: Pseudomonas aeruginosa
# Method: as §1
# P. aeruginosa AKR17 = test: MIC, agar plate dilution method; type: cell-based, Pseudomonas aeruginosa; conditions: Pseudomonas aeruginosa
# Method: as §1
# E. coli Juhl = test: treatment of experimental infection of mice; type: in vivo; conditions: Escherichia coli
# S. aureus Smith = test: treatment of experimental infection of mice; type: in vivo; conditions: Staphylococcus aureus
# P. aeruginosa D15 = test: treatment of experimental infection of mice; type: in vivo; conditions: Pseudomonas aeruginosa, D15
compound,measurement,setting,value
"CO/N=C(\C(=O)N[C@@H]1C(=O)N2C(C(=O)O)=C(COC(C)=O)CS[C@H]12)c1csc(N)n1 [Cefotaxime, reference compound]",antibacterial activity (in words),[1],excellent antibacterial activities
same,MIC,"S. aureus JS-1; JS1, S. aureus JS-1, 10^6 CFU/ml, Sensitivity Disk Agar, read-out: Minimum Inhibitory Concentration",6.25 µg/mL
same,MIC,E. coli ML1410/Rte16,≤ 0.05 µg/mL
same,MIC,E. coli CSH2,≤ 0.05 µg/mL
same,MIC,"S. aureus NIHJJC-1; NIHJJC1, S. aureus NIHJJC-1, 10^6 CFU/ml, Sensitivity Disk Agar, read-out: Minimum Inhibitory Concentration",0.78 µg/mL
same,MIC,"E. coli NIHJJC-2; NIHJJC2, E. coli NIHJJC-2, 10^6 CFU/ml, Sensitivity Disk Agar, read-out: Minimum Inhibitory Concentration",≤ 0.05 µg/mL
same,MIC,"K. pneumoniae No. 42; K. pneumoniae No. 42, 10^6 CFU/ml, Sensitivity Disk Agar, read-out: Minimum Inhibitory Concentration",≤ 0.05 µg/mL
same,MIC,"A. calcoaceticus No. 14; A. calcoaceticus No. 14, 10^6 CFU/ml, Sensitivity Disk Agar, read-out: Minimum Inhibitory Concentration",25 µg/mL
same,MIC,"E. cloaceae Nek 39; E. cloaceae Nek 39, 10^6 CFU/ml, Sensitivity Disk Agar",0.78 µg/mL
same,MIC,"P. vulgaris OB1043; P. vulgaris OB1043, 10^6 CFU/ml, Sensitivity Disk Agar, read-out: Minimum Inhibitory Concentration",0.39 µg/mL
same,MIC,E. coli C/Rms149,≤ 0.05 µg/mL
same,MIC,"C. freundii No. 7; C. freundii No. 7, 10^6 CFU/ml, Sensitivity Disk Agar, read-out: Minimum Inhibitory Concentration",0.39 µg/mL
same,MIC,"P. mirabilis JY10; P. mirabilis JY10, 10^6 CFU/ml, Sensitivity Disk Agar, read-out: Minimum Inhibitory Concentration",≤ 0.05 µg/mL
same,Minimum Inhibitory Concentration,E. coli W3630/Rms213,0.20 µg/mL
same,MIC,E. coli W3630/Rms213,0.2 µg/mL
same,Minimum Inhibitory Concentration,E. coli CSH,0.10 µg/mL
same,MIC,E. coli CSH,0.1 µg/mL
same,MIC,"S. marcescens No. 16-2; NO.162, S. marcescens No. 16-2, 10^6 CFU/ml, Sensitivity Disk Agar, read-out: Minimum Inhibitory Concentration",6.25 µg/mL
same,Minimum Inhibitory Concentration,E. coli W3630/Rms212,0.10 µg/mL
same,MIC,E. coli W3630/Rms212,0.1 µg/mL
same,MIC,"P. vulgaris No. 33; P. vulgaris No. 33, 10^6 CFU/ml, Sensitivity Disk Agar, read-out: Minimum Inhibitory Concentration",≤ 0.05 µg/mL
same,MIC,"P. maltophilia IID 1275; IID1275, P. maltophilia IID 1275, 10^6 CFU/ml, Sensitivity Disk Agar, read-out: Minimum Inhibitory Concentration",> 25 µg/mL
same,antibacterial activity (in words),Gram-positive bacteria,relatively poor antibacterial activities
same,MIC,"P. cepacia 23; Burkholderia cepacia, P. cepacia 23, 10^6 CFU/ml, Sensitivity Disk Agar, read-out: Minimum Inhibitory Concentration",3.12 µg/mL
same,antibacterial activity (in words),Gram-negative bacteria,excellent activities
same,MIC,"P. aeruginosa AK109; P. aeruginosa AK109, 10^6 CFU/ml, Sensitivity Disk Agar, read-out: Minimum Inhibitory Concentration",6.25 µg/mL
same,MIC,"P. aeruginosa AKR17; P. aeruginosa AKR17, 10^6 CFU/ml, Sensitivity Disk Agar, read-out: Minimum Inhibitory Concentration",> 25 µg/mL
"CC(C)(O/N=C(\C(=O)N[C@@H]1C(=O)N2C(C(=O)[O-])=C(C[n+]3ccccc3)CS[C@H]12)c1csc(N)n1)C(=O)O [Ceftazidime, reference compound]",MIC,"S. aureus JS-1; JS1, read-out: Minimum Inhibitory Concentration",> 25 µg/mL
same,Minimum Inhibitory Concentration,"E. coli ML1410/Rte16; E. coli ML1410/Rte16, 10^6 CFU/ml, Sensitivity Disk Agar",0.20 µg/mL
same,MIC,E. coli ML1410/Rte16,0.2 µg/mL
same,Minimum Inhibitory Concentration,E. coli CSH2,0.1 µg/mL
same,MIC,E. coli CSH2,0.1 µg/mL
same,MIC,"S. aureus NIHJJC-1; NIHJJC1, read-out: Minimum Inhibitory Concentration",3.12 µg/mL
same,Minimum Inhibitory Concentration,"E. coli NIHJJC-2; E. coli NIHJJC-2, 10^6 CFU/ml, Sensitivity Disk Agar",0.1 µg/mL
same,MIC,"E. coli NIHJJC-2; NIHJJC2, read-out: Minimum Inhibitory Concentration",0.1 µg/mL
same,MIC,"K. pneumoniae No. 42; NO.42, read-out: Minimum Inhibitory Concentration",0.39 µg/mL
same,MIC,"A. calcoaceticus No. 14; NO.14, read-out: Minimum Inhibitory Concentration",6.25 µg/mL
same,MIC,E. cloaceae Nek 39,0.78 µg/mL
same,MIC,"P. vulgaris OB1043; OB1043, read-out: Minimum Inhibitory Concentration",≤ 0.05 µg/mL
same,Minimum Inhibitory Concentration,"E. coli C/Rms149; E. coli C/Rms149, 10^6 CFU/ml, Sensitivity Disk Agar",0.20 µg/mL
same,MIC,E. coli C/Rms149,0.2 µg/mL
same,MIC,"C. freundii No. 7; NO.7, read-out: Minimum Inhibitory Concentration",1.56 µg/mL
same,MIC,"P. mirabilis JY10; JY10, read-out: Minimum Inhibitory Concentration",≤ 0.05 µg/mL
same,Minimum Inhibitory Concentration,E. coli W3630/Rms213,0.20 µg/mL
same,MIC,E. coli W3630/Rms213,0.2 µg/mL
same,Minimum Inhibitory Concentration,E. coli CSH,0.10 µg/mL
same,MIC,E. coli CSH,0.1 µg/mL
same,MIC,"S. marcescens No. 16-2; NO.162, read-out: Minimum Inhibitory Concentration",1.56 µg/mL
same,Minimum Inhibitory Concentration,E. coli W3630/Rms212,0.20 µg/mL
same,MIC,E. coli W3630/Rms212,0.2 µg/mL
same,MIC,"P. vulgaris No. 33; NO.33, read-out: Minimum Inhibitory Concentration",≤ 0.05 µg/mL
same,ED50,E. coli Juhl,0.33 mg/kg
same,ED50,S. aureus Smith,11 mg/kg
same,MIC,"P. maltophilia IID 1275; IID1275, read-out: Minimum Inhibitory Concentration",> 25 µg/mL
same,MIC,"P. cepacia 23; Burkholderia cepacia, 23, read-out: Minimum Inhibitory Concentration",0.39 µg/mL
same,antibacterial activity (in words),Gram-negative bacteria,the most excellent cephalosporin derivative against Gram-negative bacteria
same,MIC,"P. aeruginosa AK109; AK109, read-out: Minimum Inhibitory Concentration",0.39 µg/mL
same,MIC,"P. aeruginosa AKR17; AKR17, read-out: Minimum Inhibitory Concentration",> 25 µg/mL
same,ED50,P. aeruginosa D15,38 mg/kg
